Results published in ChEMBL document CHEMBL3885861, “Open TG-GATES”.

Species on record: Rattus norvegicus
Assay: Open TG-GATES - Regimen: Daily Repeat
Assay type: toxicity, organism-based, Sprague-Dawley
Design: regimen Daily Repeat, gender Male, age 6 weeks
Details: in vivo, po, 600 mg/kg, route gavage, dose level High; for APTT / Bas / Eos / Fbg / Hb / Ht / Lym / MCH / MCHC / MCV / Mono / Neu / PT / Plat / RBC / Ret / WBC: tissue Blood; for KIDNEY_L / KIDNEY_R / KIDNEY_TOTAL: tissue Kidney; for LIVER: tissue Liver; for A/G / ALP / ALT / AST / BUN / CRE / Ca / Cl / DBIL / GLC / IP / K / LDH / Na / PL / RALB / TBIL / TC / TG / TP / gamma-GTP: tissue Plasma

Compound: C[C@](N)(Cc1ccc(O)c(O)c1)C(=O)O [METHYLDOPA]
- TERMINAL_BW (72 h, time 3 day): 188.1 g
- APTT (72 h, time 3 day): 17.3 s
- Bas (72 h, time 3 day): 0%
- Eos (72 h, time 3 day): 1.2%
- Fbg (72 h, time 3 day): 240 mg/dL
- Hb (72 h, time 3 day): 14.2 g/dL
- Ht (72 h, time 3 day): 41.8%
- Lym (72 h, time 3 day): 83.2%
- MCH (72 h, time 3 day): 21.4 pg
- MCHC (72 h, time 3 day): 34%
- MCV (72 h, time 3 day): 62.9 fL
- Mono (72 h, time 3 day): 2.4%
- Neu (72 h, time 3 day): 12.6%
- PT (72 h, time 3 day): 12.8 s
- Plat (72 h, time 3 day): 108 x10_4/uL
- RBC (72 h, time 3 day): 665.2 x10_4/ul
- Ret (72 h, time 3 day): 4.2%
- WBC (72 h, time 3 day): 54.3 x10_2/uL
- KIDNEY_L (72 h, time 3 day): 0.9 g
- KIDNEY_R (72 h, time 3 day): 0.9 g
- KIDNEY_TOTAL (72 h, time 3 day): 1.7 g
- LIVER (72 h, time 3 day): 8.1 g
- A/G (72 h, time 3 day): 0.8
- ALP (72 h, time 3 day): 1746 IU/L
- ALT (72 h, time 3 day): 54.4 IU/L
- AST (72 h, time 3 day): 74 IU/L
- BUN (72 h, time 3 day): 18.2 mg/dL
- CRE (72 h, time 3 day): 0.2 mg/dL
- Ca (72 h, time 3 day): 10.9 mg/dL
- Cl (72 h, time 3 day): 106.6 meq/L
- DBIL (72 h, time 3 day): 0.01 mg/dL
- GLC (72 h, time 3 day): 167.2 mg/dL
- IP (72 h, time 3 day): 7.8 mg/dL
- K (72 h, time 3 day): 4.1 meq/L
- LDH (72 h, time 3 day): 72.2 IU/L
- Na (72 h, time 3 day): 146.2 meq/L
- PL (72 h, time 3 day): 153 mg/dL
- RALB (72 h, time 3 day): 2.6 g/dL
- TBIL (72 h, time 3 day): 0.054 mg/dL
- TC (72 h, time 3 day): 95.6 mg/dL
- TG (72 h, time 3 day): 37.2 mg/dL
- TP (72 h, time 3 day): 5.5 g/dL
- gamma-GTP (72 h, time 3 day): 1 IU/L
- TERMINAL_BW ([…], time 7 day): 207.4 g
- TERMINAL_BW ([…], time 14 day): 241.7 g
- TERMINAL_BW ([…], time 28 day): 321.4 g
- APTT ([…], time 7 day): 16.1 s
- Bas ([…], time 7 day): 0%
- Eos ([…], time 7 day): 1.2%
- Fbg ([…], time 7 day): 259 mg/dL
- Hb ([…], time 7 day): 14.4 g/dL
- Ht ([…], time 7 day): 42.1%
- Lym ([…], time 7 day): 81.6%
- MCH ([…], time 7 day): 20.5 pg
- MCHC ([…], time 7 day): 34.2%
- MCV ([…], time 7 day): 60 fL
- Mono ([…], time 7 day): 2.8%
- Neu ([…], time 7 day): 14.4%
- PT ([…], time 7 day): 12.2 s
- Plat ([…], time 7 day): 106.1 x10_4/uL
- RBC ([…], time 7 day): 702 x10_4/ul
- Ret ([…], time 7 day): 3.6%
- WBC ([…], time 7 day): 67.6 x10_2/uL
- APTT ([…], time 14 day): 16.5 s
- Bas ([…], time 14 day): 0%
- Eos ([…], time 14 day): 0.8%
- Fbg ([…], time 14 day): 277 mg/dL
- Hb ([…], time 14 day): 14.2 g/dL
- Ht ([…], time 14 day): 40.9%
- Lym ([…], time 14 day): 83.8%
- MCH ([…], time 14 day): 21.1 pg
- MCHC ([…], time 14 day): 34.7%
- MCV ([…], time 14 day): 60.8 fL
- Mono ([…], time 14 day): 1.8%
- Neu ([…], time 14 day): 13%
- PT ([…], time 14 day): 14.2 s
- Plat ([…], time 14 day): 111.5 x10_4/uL
- RBC ([…], time 14 day): 673.2 x10_4/ul
- Ret ([…], time 14 day): 4.6%
- WBC ([…], time 14 day): 86.9 x10_2/uL
- APTT ([…], time 28 day): 16.8 s
- Bas ([…], time 28 day): 0%
- Eos ([…], time 28 day): 1.2%
- Fbg ([…], time 28 day): 300.8 mg/dL
- Hb ([…], time 28 day): 14.9 g/dL
- Ht ([…], time 28 day): 43.2%
- Lym ([…], time 28 day): 75.4%
- MCH ([…], time 28 day): 19.7 pg
- MCHC ([…], time 28 day): 34.5%
- MCV ([…], time 28 day): 57.2 fL
- Mono ([…], time 28 day): 2%
- Neu ([…], time 28 day): 21.2%
- PT ([…], time 28 day): 14.1 s
- Plat ([…], time 28 day): 101.5 x10_4/uL
- RBC ([…], time 28 day): 756.4 x10_4/ul
- Ret ([…], time 28 day): 2.4%
- WBC ([…], time 28 day): 68.4 x10_2/uL
- KIDNEY_L ([…], time 7 day): 0.9 g
- KIDNEY_R ([…], time 7 day): 0.9 g
- KIDNEY_TOTAL ([…], time 7 day): 1.8 g
- KIDNEY_L ([…], time 14 day): 1 g
- KIDNEY_R ([…], time 14 day): 1 g
- KIDNEY_TOTAL ([…], time 14 day): 2 g
- KIDNEY_L ([…], time 28 day): 1.2 g
- KIDNEY_R ([…], time 28 day): 1.2 g
- KIDNEY_TOTAL ([…], time 28 day): 2.5 g
- LIVER ([…], time 7 day): 8.1 g
- LIVER ([…], time 14 day): 9.1 g
- LIVER ([…], time 28 day): 11.7 g
- A/G ([…], time 7 day): 0.9
- ALP ([…], time 7 day): 1646.8 IU/L
- ALT ([…], time 7 day): 51 IU/L
- AST ([…], time 7 day): 88.4 IU/L
- BUN ([…], time 7 day): 14.6 mg/dL
- CRE ([…], time 7 day): 0.2 mg/dL
- Ca ([…], time 7 day): 10.9 mg/dL
- Cl ([…], time 7 day): 107.6 meq/L
- DBIL ([…], time 7 day): 0.008 mg/dL
- GLC ([…], time 7 day): 179.2 mg/dL
- IP ([…], time 7 day): 7.8 mg/dL
- K ([…], time 7 day): 4.4 meq/L
- LDH ([…], time 7 day): 66.4 IU/L
- Na ([…], time 7 day): 146 meq/L
- PL ([…], time 7 day): 133.2 mg/dL
- RALB ([…], time 7 day): 2.7 g/dL
- TBIL ([…], time 7 day): 0.064 mg/dL
- TC ([…], time 7 day): 87.4 mg/dL
- TG ([…], time 7 day): 26 mg/dL
- TP ([…], time 7 day): 5.7 g/dL
- gamma-GTP ([…], time 7 day): 1.2 IU/L
- A/G ([…], time 14 day): 0.8
- ALP ([…], time 14 day): 1330.4 IU/L
- ALT ([…], time 14 day): 43.8 IU/L
- AST ([…], time 14 day): 65 IU/L
- BUN ([…], time 14 day): 12.2 mg/dL
- CRE ([…], time 14 day): 0.2 mg/dL
- Ca ([…], time 14 day): 11.2 mg/dL
- Cl ([…], time 14 day): 105.4 meq/L
- DBIL ([…], time 14 day): 0.002 mg/dL
- GLC ([…], time 14 day): 179.6 mg/dL
- IP ([…], time 14 day): 7.9 mg/dL
- K ([…], time 14 day): 4.7 meq/L
- LDH ([…], time 14 day): 53.4 IU/L
- Na ([…], time 14 day): 143 meq/L
- PL ([…], time 14 day): 139.4 mg/dL
- RALB ([…], time 14 day): 2.7 g/dL
- TBIL ([…], time 14 day): 0.054 mg/dL
- TC ([…], time 14 day): 91 mg/dL
- TG ([…], time 14 day): 26.4 mg/dL
- TP ([…], time 14 day): 5.8 g/dL
- gamma-GTP ([…], time 14 day): 1 IU/L
- A/G ([…], time 28 day): 0.8
- ALP ([…], time 28 day): 1178.8 IU/L
- ALT ([…], time 28 day): 40 IU/L
- AST ([…], time 28 day): 56.8 IU/L
- BUN ([…], time 28 day): 13 mg/dL
- CRE ([…], time 28 day): 0.2 mg/dL
- Ca ([…], time 28 day): 11 mg/dL
- Cl ([…], time 28 day): 104.4 meq/L
- DBIL ([…], time 28 day): 0.016 mg/dL
- GLC ([…], time 28 day): 177.2 mg/dL
- IP ([…], time 28 day): 7.4 mg/dL
- K ([…], time 28 day): 4.3 meq/L
- LDH ([…], time 28 day): 39.2 IU/L
- Na ([…], time 28 day): 144.8 meq/L
- PL ([…], time 28 day): 140.6 mg/dL
- RALB ([…], time 28 day): 2.7 g/dL
- TBIL ([…], time 28 day): 0.062 mg/dL
- TC ([…], time 28 day): 84.4 mg/dL
- TG ([…], time 28 day): 37.6 mg/dL
- TP ([…], time 28 day): 6 g/dL
- gamma-GTP ([…], time 28 day): 1 IU/L
